Here are results for three molecules from patent EP4799701A2, “PYRIMID-2-YL-PYRAZOLE COMPOUNDS AS IRAK INHIBITORS” (Rigel Pharmaceuticals, Inc., priority 2022, dated 2023).

Each structure is given as a SMILES string. “And” between values parts separate entries of the source, which are not always exact repeats. Equal entries are not always repeated. Structures can show the parent of a compound that is named as a salt.

Data set [1] in a line: Rat brain homogenate binding, equilibrium dialysis (RED). Conditions: two runs; brain homogenate 1 brain /3 buffer, drug 5 µM; 5 µM. Type of data set: in vitro ADME. On the procedure:
Brain and plasma drug binding were performed by equilibrium dialysis using the Rapid Equilibrium Dialysis (RED) device. Briefly, 300 µL of plasma or brain homogenate (1 brain /3 buffer) containing drug (5 µM) was equilibrated (4-18 h) against 500 µL of buffered saline. After incubation, the concentration of drug in plasma/brain homogenate and buffer was determined by LC-MS/MS.
Two runs of rat brain homogenate binding with I-1 compared to Comparison-1. I-1 is approximately 10-fold more free in rat brain than Comparison-1.
In general terms: In equilibrium dialysis free small molecules cross a membrane that holds back macromolecules.

For a further data set, the system named is TLR4-induced IL-23. Put plainly: LPS induced IL23p19 in THP-1 cells (IFNγ primed), IL-23p19 sandwich ELISA. It is filed as cell-based, human. Conditions: THP-1 cells primed with IFNγ, 1 µg/mL LPS, 18 hours; read-out: IL23-p19 ELISA, THP1-IFNy, LPS, 10pt EC50. From the text:
LPS induced IL23p19 in THP-1 cells (with IFNy primed) Assay
THP-1 Cells (ATCC, Cat# TIB-202), Dimethyl Sulfoxide (DMSO) (Sigma-Aldrich, Cat# D2650), RPMI 1640 (Cellgro, Cat# 10-040-CM), Fetal Bovine Serum (Sigma, Cat# F4135), Albumin From Bovine Serum (BSA) (Sigma-Aldrich, Cat#A7906), LPS (Serotype K-235, Sigma, Product Number L 2143), IFNγ (Peprotech, Cat# 300-02), Capture antibody: Human IL-23p19 ELISA (e-Bioscience, Cat. # 14-7238-85), Detection antibody: Primary Mouse Biotinylated anti-human IL-12(p40/p70) (e-Bioscience, Cat. # 13-7129-85), Secondary HRP-conjugated Streptavidin (R&D Systems, Cat#DY998), 1x PBST Washing Buffer (PBS-Tween tablet) (VWR International, Cat#80058-558), ELISA Blocking Buffer (PBS with 1% BSA), ELISA Dilution Buffer (PBS with 1% BSA), 384 Well Flat-Bottom, MaxiSorp Black Immuno Plates (Thermo Scientific, Cat# 12-565-346), 384 Well Flat-Bottom, White Tissue Culture Plates (Thermo Scientific, Cat# 12-565-343), Super Signal ELISA Pico Chemiluminescent Substrate (Thermo Scientific, Cat#37070), Cell Titer Glo reagent (Promega, Cat#G7573), Positive control, IKK2VI inhibitor (Calbiochem, Cat#401483), AquaMax 4000 plate washer (Molecular Devices), Luminometer, Wallac Victor2 1420 Multilabel Counter.
On day 1, 50K/well THP-1 cells were seeded and primed with IFNγ (50ng/mL) in 384-well plates for about 18 hours in RPMI media with 10%FBS. On day 2, the compound was serially diluted in DMSO from 5 mM in 3-fold dilutions, and then diluted 1:125 in RPMI media with 10%FBS. […] IL-23p19 protein in 70 µL/well of supernatant was measured by sandwich ELISA, and 25 µl/well Cell Titer Glo reagent was added to the remaining cells to measure compound toxicity.
Maxisorp immuno ELISA plates were pre-coated with 25 µL/well of anti-IL-23p19 capture antibody (2.5ug/mL) in PBS overnight at room temperature. […] The plates were read with a luminometer, and the chemiluminescence values were entered into Athena (Rigel) for curve fitting, EC50 calculation, and database storage. […]
For orientation: An ELISA detects its analyte on a solid surface through an enzyme-linked reagent.

On to `CCO[C@H]1CC[C@H](n2cc(NC(=O)c3csc(-c4cn[nH]c4)n3)c(-c3nc(F)ccc3F)n2)CC1` [Comparison-1, reference compound], for which the “rat brain homogenate binding (free drug)” value in data set [1] is 0.102% and 0.114%.

Regarding `CCO[C@H]1CC[C@H](n2cc(NC(=O)c3csc(-c4cnn(COP(=O)(O)O)c4)n3)c(-c3ncccn3)n2)CC1` [Compound I-3, sodium (4-(4-((1-((1r,4r)-4-ethoxycyclohexyl)-3-(pyrimidin-2-yl)-1H-pyrazol-4-yl)carbamoyl)thiazol-2-yl)-1H-pyrazol-1-yl)methyl phosphate], in the data set with TLR4-induced IL-23, the EC50 (commonly the midpoint of the concentration-response curve) was 54.4 nM.

For the molecule `CCO[C@H]1CC[C@H](n2cc(NC(=O)c3csc(-c4cn[nH]c4)n3)c(-c3ncccn3)n2)CC1` [Compound I-4, N-(1-((1r,4r)-4-ethoxycyclohexyl)-3-(pyrimidin-2-yl)-1H-pyrazol-4-yl)-2-(1H-pyrazol-4-yl)thiazole-4-carboxamide tartaric acid salt], in the data set with TLR4-induced IL-23, the EC50 is 2.5 nM.
